Values joined by “and” are separate entries in the source; they are usually repeats but may differ in a detail not shown here. Identical values can stand only once.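 The compound was tested at five concentrations on cells cultured in 96-well plates, with a 48-hour exposure period. GI50 = concentration required for 50% inhibition of growth.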 Active and inactive are the calls of the source. No stated cut-off is given here; in the data, active = GI50 up to about 1.1 µM and inactive = higher.
How the values were obtained:
Test in all cases: NCI anticancer screen, dose series, 48 h
[1] = tested on: 786-0
[2] = tested on: A498
[3] = tested on: A549
[4] = tested on: ACHN
[5] = tested on: CCRF-CEM
[6] = tested on: COLO 205
[7] = tested on: DLD-1
[8] = tested on: DMS-114
[9] = tested on: DMS-273
[10] = tested on: EKVX
[11] = tested on: HCC 2998
[12] = tested on: HCT-116
[13] = tested on: HCT-15
[14] = tested on: HL-60
[15] = tested on: HOP-62
[16] = tested on: HT-29
[17] = tested on: IGROV-1
[18] = tested on: K562
[19] = tested on: KM-20L2
[20] = tested on: KM12
[21] = tested on: LXFL 529
[22] = tested on: M14
[23] = tested on: M19-MEL
[24] = tested on: MOLT-4
[25] = tested on: Malme-3M
[26] = tested on: NCI-H226
[27] = tested on: NCI-H23
[28] = tested on: NCI-H460
[29] = tested on: NCI-H522
[30] = tested on: OVCAR-3
[31] = tested on: OVCAR-4
[32] = tested on: OVCAR-5
[33] = tested on: OVCAR-8
[34] = tested on: RPMI-8226
[35] = tested on: RXF 393
[36] = tested on: SF-268
[37] = tested on: SF-295
[38] = tested on: SF-539
[39] = tested on: SK-MEL-28
[40] = tested on: SK-MEL-2
[41] = tested on: SK-OV-3
[42] = tested on: SN12C
[43] = tested on: SNB-19
[44] = tested on: SNB-75
[45] = tested on: SNB-78
[46] = tested on: SR
[47] = tested on: SW-620
[48] = tested on: TK-10
[49] = tested on: U-251
[50] = tested on: UACC-257
[51] = tested on: UACC-62
[52] = tested on: UO-31
[53] = tested on: BT-549
[54] = tested on: HOP-18
[55] = tested on: SK-MEL-5

For `CC(C)=CC(=O)CC(=O)C(=O)Nc1ccc(Cl)c(Cl)c1`, the GI50 [1] was > 100 µM (inactive), the GI50 [2] was > 100 µM (inactive) and the GI50 [3] was > 100 µM (inactive). For the same compound, the GI50 [4] was > 100 µM (inactive), the GI50 [5] was > 100 µM (inactive) and the GI50 [6] was > 100 µM (inactive). For the same compound, the GI50 [7] was > 100 µM (inactive), the GI50 [8] was > 100 µM (inactive) and the GI50 [9] was > 100 µM (inactive). For the same compound, the GI50 [10] was > 100 µM (inactive), the GI50 [11] was > 100 µM (inactive) and the GI50 [12] was > 100 µM (inactive). The GI50 [13] was greater than 100 µM, the GI50 [14] was > 100 µM (inactive) and the GI50 [15] was > 100 µM (inactive). The GI50 [16] was > 100 µM (inactive), the GI50 [17] was > 100 µM (inactive) and the GI50 [18] was > 100 µM (inactive). For the same compound, the GI50 [19] was > 100 µM (inactive), the GI50 [20] was > 100 µM (inactive) and the GI50 [21] was > 100 µM (inactive). For the same compound, the GI50 [22] was > 100 µM (inactive), the GI50 [23] was > 100 µM (inactive) and the GI50 [24] was > 100 µM (inactive). The GI50 [25] was > 100 µM (inactive), the GI50 [26] was > 100 µM (inactive) and the GI50 [27] was > 100 µM (inactive). For the same compound, the GI50 [28] was > 100 µM (inactive), the GI50 [29] was > 100 µM (inactive) and the GI50 [30] was > 100 µM (inactive). The GI50 [31] was > 100 µM (inactive), the GI50 [32] was > 100 µM (inactive) and the GI50 [33] was > 100 µM (inactive). The GI50 [34] was > 100 µM (inactive), the GI50 [35] was > 100 µM (inactive) and the GI50 [36] was > 100 µM (inactive). For the same compound, the GI50 [37] was > 100 µM (inactive), the GI50 [38] was > 100 µM (inactive) and the GI50 [39] was > 100 µM (inactive). For the same compound, the GI50 [40] was > 100 µM (inactive), the GI50 [41] was > 100 µM (inactive) and the GI50 [42] was > 100 µM (inactive). For the same compound, the GI50 [43] was > 100 µM (inactive), the GI50 [44] was > 100 µM (inactive) and the GI50 [45] was > 100 µM (inactive). For the same compound, the GI50 [46] was > 100 µM (inactive), the GI50 [47] was > 100 µM (inactive) and the GI50 [48] was > 100 µM (inactive). For the same compound, the GI50 [49] was > 100 µM (inactive), the GI50 [50] was > 100 µM (inactive) and the GI50 [51] was > 100 µM (inactive). The GI50 [52] was > 100 µM (inactive).

`Oc1cccc2cccnc12` [OXYQUINOLINE] was tested, and the GI50 [53] was > 80.2 µM (inactive), the GI50 [7] was 1.47 µM (inactive) and the GI50 [9] was 2.53 µM (inactive). For the same compound, the GI50 [14] was 251 nM (active) and 457 nM (active), the GI50 [54] was 14.8 µM (inactive) and the GI50 [17] was 3.14 µM (inactive) and 4.5 µM (inactive). The GI50 [19] was 1.38 µM (inactive), the GI50 [21] was 0.605 µM (active) and the GI50 [34] was 0.578 µM (active). The GI50 [55] was 8.69 µM (inactive) and 4.93 µM (inactive) and the GI50 [46] was 0.453 µM (active).
